Key:
Format in all cases: cell-based
H1975 cells = test: SRB assay, lung cancer cells H1975
Protocol: (§1) As a comparison, omeprazole (KN510) and trimetazidine (KN713), a 3-ketoacyl CoA thiolase inhibitor, were co-treated. […] After cell inoculation, 96-well cell culture plates were incubated for 24 hours before the addition of experimental drugs. […] The cells were then incubated in a CO2 incubator for 48 hours, after which the assay was terminated by the addition of cold TCA. Cells were fixed in situ by gently adding 50 μl of cold 50% (w/v) TCA (final concentration: 10% TCA) and incubated at 4° C. for 60 min. The supernatant was discarded, and the plate was washed five times with distilled water and air dried. Sulforhodamine B (SRB) solution (100 μl) of 0.4% (w/v) in 1% acetic acid was added to each well, and the plate was left at room temperature for 10 min. After staining, unbound dye was removed by washing five times with 1% acetic acid, and the plate was air-dried. The bound dye was then solubilized with 10 mM trizma base, and the absorbance was recorded at 515 nm using an automated plate reader. […] The predicted synergistic activity of a combination of the present invention can be calculated using the Colby Equation in Equation 1 (S.R. Colby, Weeds, 1967, pp. 15, 20-22): In the present invention, the actual measure of anti-cancer activity of the combination treatment was the inhibition rate of cancer cell growth (%), and the predicted value (E) of the combination treatment was measured by substituting it into the above Colby Equation.

UACC-62 cells = test: SRB assay, melanoma cell line UACC-62
Protocol: as §1

DLD-1 cells = test: SRB assay, colon cancer cell line DLD-1
Protocol: as §1

MDA-MB-231 cells = test: SRB assay, breast cancer cell line MDA-MB-231
Protocol: as §1

A549 cells = test: SRB assay, lung cancer cells A549
Protocol: as §1

HCT-116 cells = test: SRB assay, colon cancer cell line HCT-116
Protocol: as §1

CAKI-1 cells = test: SRB assay, renal cell carcinoma cell line CAKI-1
Protocol: as §1

U251 cells = test: SRB assay, glioblastoma cell line U251
Protocol: as §1

PANC-1 cells = test: SRB assay, pancreatic cancer cell line PANC-1
Protocol: as §1

PC-3 cells = test: SRB assay, prostate cancer cells PC-3
Protocol: as §1

K562 cells = test: SRB assay, leukemia cell line K562
Protocol: as §1

OVCAR-8 cells = test: SRB assay, ovarian cancer cells OVCAR-8
Protocol: as §1

SR cells = test: SRB assay, leukemia cell line SR
Protocol: as §1

Hep-3B cells = test: SRB assay, liver cancer cell line Hep-3B
Protocol: as §1

SK-MEL-5 = test: SRB assay, melanoma cell line SK-MEL-5
Protocol: as §1

[1] = Homo sapiens, KN714 5 μM, read-out: Inhibition rate of cancer cell growth (%) (Actual value)
[2] = Homo sapiens, KN714 10 μM, read-out: Inhibition rate of cancer cell growth (%) (Actual value)
[3] = Homo sapiens, KN510 100 μM, read-out: Inhibition rate of cancer cell growth (%) (Actual value)
[4] = Homo sapiens, KN510 200 μM, read-out: Inhibition rate of cancer cell growth (%) (Actual value)

## CSc1ccc2c(c1)N(CCC1CCCCN1C)c1ccccc1S2 (stereo not drawn) [KN714, 10-[2-(1-methyl-2-piperidyl)ethyl]-2-(methylthio)phenothiazine]
H1975 cells; Homo sapiens, NCI-H1975, KN714 5 μM, read-out: Inhibition rate of cancer cell growth (%) (Actual value)
  inhibition at 5 µM: -13.9%
H1975 cells; Homo sapiens, NCI-H1975, KN714 10 μM, read-out: Inhibition rate of cancer cell growth (%) (Actual value)
  inhibition at 10 µM: 8.1%
H1975 cells; KN714 5 μM
  Cancer cell growth rate Average (%): 113.89%
H1975 cells; KN714 10 μM
  Cancer cell growth rate Average (%): 91.90%
UACC-62 cells; [1]
  inhibition at 5 µM: 10.6%
UACC-62 cells; [2]
  inhibition at 10 µM: 60.5%
UACC-62 cells; KN714 5 μM
  Cancer cell growth rate Average (%): 89.43%
UACC-62 cells; KN714 10 μM
  Cancer cell growth rate Average (%): 39.54%
DLD-1 cells; [1]
  inhibition at 5 µM: 8.66%
DLD-1 cells; [2]
  inhibition at 10 µM: 13.1%
DLD-1 cells; KN714 5 μM
  Cancer cell growth rate Average (%): 91.34%
DLD-1 cells; KN714 10 μM
  Cancer cell growth rate Average (%): 86.87%
MDA-MB-231 cells; [1]
  inhibition at 5 µM: 9.36%
MDA-MB-231 cells; [2]
  inhibition at 10 µM: 29.8%
MDA-MB-231 cells; KN714 5 μM
  Cancer cell growth rate Average (%): 90.64%
MDA-MB-231 cells; KN714 10 μM
  Cancer cell growth rate Average (%): 70.20%
A549 cells; [1]
  inhibition at 5 µM: 2.15%
A549 cells; [2]
  inhibition at 10 µM: 35.4%
A549 cells; KN714 5 μM
  Cancer cell growth rate Average (%): 97.85%
A549 cells; KN714 10 μM
  Cancer cell growth rate Average (%): 64.57%
HCT-116 cells; [1]
  inhibition at 5 µM: 7.99%
HCT-116 cells; [2]
  inhibition at 10 µM: 32.2%
HCT-116 cells; KN714 5 μM
  Cancer cell growth rate Average (%): 92.01%
HCT-116 cells; KN714 10 μM
  Cancer cell growth rate Average (%): 67.80%
CAKI-1 cells; [1]
  inhibition at 5 µM: 24%
CAKI-1 cells; [2]
  inhibition at 10 µM: 49.4%
CAKI-1 cells; KN714 5 μM
  Cancer cell growth rate Average (%): 75.99%
CAKI-1 cells; KN714 10 μM
  Cancer cell growth rate Average (%): 50.59%
U251 cells; Homo sapiens, U-251, KN714 5 μM, read-out: Inhibition rate of cancer cell growth (%) (Actual value)
  inhibition at 5 µM: 40%
U251 cells; Homo sapiens, U-251, KN714 10 μM, read-out: Inhibition rate of cancer cell growth (%) (Actual value)
  inhibition at 10 µM: 121%
U251 cells; KN714 5 μM
  Cancer cell growth rate Average (%): 59.99%
U251 cells; KN714 10 μM
  Cancer cell growth rate Average (%): −20.54%
PANC-1 cells; [1]
  inhibition at 5 µM: 10.2%
PANC-1 cells; [2]
  inhibition at 10 µM: 70%
PANC-1 cells; KN714 5 μM
  Cancer cell growth rate Average (%): 89.85%
PANC-1 cells; KN714 10 μM
  Cancer cell growth rate Average (%): 30.04%
PC-3 cells; [1]
  inhibition at 5 µM: 18.1%
PC-3 cells; [2]
  inhibition at 10 µM: 53%
PC-3 cells; KN714 5 μM
  Cancer cell growth rate Average (%): 81.94%
PC-3 cells; KN714 10 μM
  Cancer cell growth rate Average (%): 47.00%
K562 cells; [1]
  inhibition at 5 µM: 57.8%
K562 cells; [2]
  inhibition at 10 µM: 102%
K562 cells; KN714 5 μM
  Cancer cell growth rate Average (%): 42.25%
K562 cells; KN714 10 μM
  Cancer cell growth rate Average (%): −1.56%
OVCAR-8 cells; [1]
  inhibition at 5 µM: 6.92%
OVCAR-8 cells; [2]
  inhibition at 10 µM: 55.1%
OVCAR-8 cells; KN714 5 μM
  Cancer cell growth rate Average (%): 93.08%
OVCAR-8 cells; KN714 10 μM
  Cancer cell growth rate Average (%): 44.89%
SR cells; [1]
  inhibition at 5 µM: 37.2%
SR cells; [2]
  inhibition at 10 µM: 111%
SR cells; KN714 5 μM
  Cancer cell growth rate Average (%): 62.75%
SR cells; KN714 10 μM
  Cancer cell growth rate Average (%): −11.34%
Hep-3B cells; Homo sapiens, Hep3B, KN714 5 μM, read-out: Inhibition rate of cancer cell growth (%) (Actual value)
  inhibition at 5 µM: 6.06%
Hep-3B cells; Homo sapiens, Hep3B, KN714 10 μM, read-out: Inhibition rate of cancer cell growth (%) (Actual value)
  inhibition at 10 µM: 29.9%
Hep-3B cells; KN714 5 μM
  Cancer cell growth rate Average (%): 93.94%
Hep-3B cells; KN714 10 μM
  Cancer cell growth rate Average (%): 70.15%
SK-MEL-5; [1]
  inhibition at 5 µM: 19.3%
SK-MEL-5; [2]
  inhibition at 10 µM: 124%
SK-MEL-5; KN714 5 μM
  Cancer cell growth rate Average (%): 80.69%
SK-MEL-5; KN714 10 μM
  Cancer cell growth rate Average (%): −23.56%

## COc1ccc2[nH]c([S+]([O-])Cc3ncc(C)c(OC)c3C)nc2c1 (stereo not drawn) [KN510, omeprazole]
H1975 cells; Homo sapiens, NCI-H1975, KN510 100 μM, read-out: Inhibition rate of cancer cell growth (%) (Actual value)
  inhibition at 100 µM: 15.5%
H1975 cells; Homo sapiens, NCI-H1975, KN510 200 μM, read-out: Inhibition rate of cancer cell growth (%) (Actual value)
  inhibition at 200 µM: 56.8%
H1975 cells; KN510 100 μM
  Cancer cell growth rate Average (%): 84.54%
H1975 cells; KN510 200 μM
  Cancer cell growth rate Average (%): 43.18%
UACC-62 cells; [3]
  inhibition at 100 µM: 53.4%
UACC-62 cells; [4]
  inhibition at 200 µM: 96.4%
UACC-62 cells; KN510 100 μM
  Cancer cell growth rate Average (%): 46.56%
UACC-62 cells; KN510 200 μM
  Cancer cell growth rate Average (%): 3.59%
DLD-1 cells; [3]
  inhibition at 100 µM: 26.1%
DLD-1 cells; [4]
  inhibition at 200 µM: 63.2%
DLD-1 cells; KN510 100 μM
  Cancer cell growth rate Average (%): 73.90%
DLD-1 cells; KN510 200 μM
  Cancer cell growth rate Average (%): 36.78%
MDA-MB-231 cells; [3]
  inhibition at 100 µM: 29.7%
MDA-MB-231 cells; [4]
  inhibition at 200 µM: 71.9%
MDA-MB-231 cells; KN510 100 μM
  Cancer cell growth rate Average (%): 70.29%
MDA-MB-231 cells; KN510 200 μM
  Cancer cell growth rate Average (%): 28.13%
A549 cells; [3]
  inhibition at 100 µM: 44.6%
A549 cells; [4]
  inhibition at 200 µM: 69.7%
A549 cells; KN510 100 μM
  Cancer cell growth rate Average (%): 55.44%
A549 cells; KN510 200 μM
  Cancer cell growth rate Average (%): 30.29%
HCT-116 cells; [3]
  inhibition at 100 µM: 15.7%
HCT-116 cells; [4]
  inhibition at 200 µM: 31.1%
HCT-116 cells; KN510 100 μM
  Cancer cell growth rate Average (%): 84.28%
HCT-116 cells; KN510 200 μM
  Cancer cell growth rate Average (%): 68.86%
CAKI-1 cells; [3]
  inhibition at 100 µM: 32%
CAKI-1 cells; [4]
  inhibition at 200 µM: 72.9%
CAKI-1 cells; KN510 100 μM
  Cancer cell growth rate Average (%): 67.99%
CAKI-1 cells; KN510 200 μM
  Cancer cell growth rate Average (%): 27.11%
U251 cells; Homo sapiens, U-251, KN510 100 μM, read-out: Inhibition rate of cancer cell growth (%) (Actual value)
  inhibition at 100 µM: 26.5%
U251 cells; Homo sapiens, U-251, KN510 200 μM, read-out: Inhibition rate of cancer cell growth (%) (Actual value)
  inhibition at 200 µM: 44.9%
U251 cells; KN510 100 μM
  Cancer cell growth rate Average (%): 73.51%
U251 cells; KN510 200 μM
  Cancer cell growth rate Average (%): 55.11%
PANC-1 cells; [3]
  inhibition at 100 µM: 55.5%
PANC-1 cells; [4]
  inhibition at 200 µM: 89%
PANC-1 cells; KN510 100 μM
  Cancer cell growth rate Average (%): 44.47%
PANC-1 cells; KN510 200 μM
  Cancer cell growth rate Average (%): 10.96%
PC-3 cells; [3]
  inhibition at 100 µM: 46.6%
PC-3 cells; [4]
  inhibition at 200 µM: 66.2%
PC-3 cells; KN510 100 μM
  Cancer cell growth rate Average (%): 53.42%
PC-3 cells; KN510 200 μM
  Cancer cell growth rate Average (%): 33.81%
K562 cells; [3]
  inhibition at 100 µM: 44.8%
K562 cells; [4]
  inhibition at 200 µM: 73%
K562 cells; KN510 100 μM
  Cancer cell growth rate Average (%): 55.18%
K562 cells; KN510 200 μM
  Cancer cell growth rate Average (%): 27.01%
OVCAR-8 cells; [3]
  inhibition at 100 µM: 44.5%
OVCAR-8 cells; [4]
  inhibition at 200 µM: 63.3%
OVCAR-8 cells; KN510 100 μM
  Cancer cell growth rate Average (%): 55.49%
OVCAR-8 cells; KN510 200 μM
  Cancer cell growth rate Average (%): 36.66%
SR cells; [3]
  inhibition at 100 µM: 35.1%
SR cells; [4]
  inhibition at 200 µM: 70.1%
SR cells; KN510 100 μM
  Cancer cell growth rate Average (%): 64.90%
SR cells; KN510 200 μM
  Cancer cell growth rate Average (%): 29.89%
Hep-3B cells; Homo sapiens, Hep3B, KN510 100 μM, read-out: Inhibition rate of cancer cell growth (%) (Actual value)
  inhibition at 100 µM: 15.1%
Hep-3B cells; Homo sapiens, Hep3B, KN510 200 μM, read-out: Inhibition rate of cancer cell growth (%) (Actual value)
  inhibition at 200 µM: 40.1%
Hep-3B cells; KN510 100 μM
  Cancer cell growth rate Average (%): 84.95%
Hep-3B cells; KN510 200 μM
  Cancer cell growth rate Average (%): 59.89%
SK-MEL-5; [3]
  inhibition at 100 µM: 34.6%
SK-MEL-5; [4]
  inhibition at 200 µM: 53.9%
SK-MEL-5; KN510 100 μM
  Cancer cell growth rate Average (%): 65.42%
SK-MEL-5; KN510 200 μM
  Cancer cell growth rate Average (%): 46.11%
